One test has as its system r(CUG)9. Description: Surface plasmon resonance (SPR) binding to immobilized r(CUG)9 RNA. As to the method:
A streptavidin-coated sensor chip (SA chip, GE Healthcare) was washed with HBS-EP^+ buffer (10 mM HEPES, pH 7.4, 0.15 M NaCl, 3 mM EDTA and 0.05% v/v Surfactant P20) for 6 minutes, and then activated with three consecutive 1-min injection of 30 μL of activation buffer (50 mM NaOH and 1 M NaCl).
5′-Biotinylated r(CUG)9 (Thermo Fisher Scientific Inc.) was diluted to 0.1 μM with HEPES buffer (10 mM HEPES and 500 mM NaCl) and flowed onto the sensor chip until immobilized response units (RU) reaching around 400 RU. The amount of r(CUG)9 immobilized on the surface of the sensor chip was at 401 RU.
Surface plasmon resonance was measured using BIAcore T200 SPR system (GE Healthcare).
r(CUG)9 used for the SPR assay has the sequence as shown below.
For single-cycle kinetic (SCK) analysis, the surface of the sensor chip was conditioned by 120 sec exposure of continuous flow of HBS-EP^+ buffer at a flow rate of 30 μL/min at 25° C. Compound JM608 was dissolved in HBS-EP^+ buffer at a concentration of 0.063 μM, 0.125 μM, 0.25 μM, 0.50 μM and 1.0 μM, and the resulting solutions were sequentially injected on the sensor surface for 60 seconds each at a flow rate of 30 μL/min per cycle.
The obtained SPR response curves were analyzed using BIAcore T200 evaluation software (version 2.0).
SPR measurement was performed in the same manner as in Example 1 except that compound JM642 was used in place of compound JM608 and that solutions of compound JM642 at concentrations of 6 nM, 13 nM, 25 nM, 50 nM and 100 nM were sequentially injected.
The resonance unit for the compound at a concentration of 25 nM in Example 1 was calculated from the measured value (1.9 RU) for the compound at 63 nM using the formula: 1.9 RU×(25 nM/63 nM).
On the technique in general: In SPR one partner is held on a chip, and binding of the other changes the refractive index at the surface.

Test [1] has as its system Atp2a1 (sarcoplasmic reticulum Ca2+/ATPase gene) Exon 22 splicing. Description: Improvement of Atp2a1 splicing abnormality in DM1 mouse model. It is filed as in vivo, homozygous HSA^LR transgenic mice. Conditions: 20 mg/kg/day, daily intraperitoneal administration for five days; rectus femoris (quadriceps). As to the method: (§1) Gender- and age-matched homozygous HSA^LR transgenic mice of line 20b (FVB inbred background) (Science 2000, 289, 1769-1772) (<3 months old) were treated with JM642 at indicated doses (10 mg/kg/day and 20 mg/kg/day) for five days by daily intraperitoneal administration. After treatments, the rectus femoris (quadriceps) were obtained for splicing analysis. Total RNA extraction from the tissue, cDNA synthesis and polymerase chain reaction (PCR) were carried out according to Ann. Clin. Transl. Neurol. 2016, 3, 42-54. The PCR products were separated by agarose gel electrophoresis, and the gel was stained with GelRed (Biotium). The gel was imaged using a Typhoon laser fluorimager (GE Healthcare) and the gel bands were quantified using ImageQuant (GE Healthcare).
(§2) For normal mice and mice treated in the same manner as above except that JM642 was not administered, total RNA extraction, cDNA synthesis, PCR and electrophoresis of the PCR products were performed in the same manner as above.
Evaluation was performed in the same manner as in Example 3 except that the compound (DDAP) shown below synthesized in accordance with the method described in non-patent literature 3 was used in place of compound JM642.

Test [2] has as its system Clcn1 (muscle-specific chloride channel gene) Exon 7a splicing. Nature of the test: Improvement of Clcn1 splicing abnormality in DM1 mouse model. It is filed as in vivo, homozygous HSA^LR transgenic mice. Particulars: 20 mg/kg/day, daily intraperitoneal administration for five days; rectus femoris (quadriceps). The method, then: as §1, §2
Evaluation was performed in the same manner as in Example 3 except that Clcn1 was studied in place of Atp2a1.
Evaluation was performed in the same manner as in Example 4 except that the compound (DDAP) shown above synthesized in accordance with the method described in non-patent literature 3 was used in place of compound JM642.

For the compound `NCCCNc1nc(NC(=O)OCCCN)cc2c(-c3ccnc(N4CCNCC4)c3)cccc12` [JM608, 3-aminopropyl (1-((3-aminopropyl)amino)-5-(2-(piperazin-1-yl)pyridin-4-yl)isoquinolin-3-yl)carbamate], the “Resonance unit (RU) at concentration of 25 nM” value in the test on r(CUG)9 (25 nM compound, r(CUG)9 immobilized at 401 RU, calculated from measured value at 63 nM: 1.9 RU×(25 nM/63 nM)) was 0.8 RU. In the test with r(CUG)9 (63 nM compound, r(CUG)9 immobilized at 401 RU), the “Resonance unit, measured value at 63 nM” value came to 1.9 RU. Further, the “binding capacity to the CUG repeat sequence” value with r(CUG)9 (SPR, FIGS. 1 and 2 and Table 2) was “observed”.
Regarding `NCCCNc1nc(NC(=O)OCCCNC(=O)CCNCCC(=O)NCCCOC(=O)Nc2cc3c(-c4ccnc(N5CCNCC5)c4)cccc3c(NCCCN)n2)cc2c(-c3ccnc(N4CCNCC4)c3)cccc12` [JM642, ((3,3′-azanediylbis(propanoyl))bis(azanediyl))bis(propane-3,1-diyl)bis((1-((3-aminopropyl)amino)-5-(2-(piperazin-1-yl)pyridin-4-yl)isoquinolin-3-yl)carbamate)], the “inclusion rate of Exon 22” value in test [1] turned out to be 70%. For the same compound, the “skipping rate of Exon 7a” value in test [2] is recorded as 70%.

Source of the values: patent US20230193265A1, “CUG REPEAT SEQUENCE BINDING AGENT” (OSAKA UNIVERSITY, priority 2020, published 2023).
